Measurements published in ChEMBL document CHEMBL1137486, “N4-phenyl modifications of N2-(2-hydroxyl)ethyl-6-(pyrrolidin-1-yl)-1,3,5-triazine-2,4-diamines enhance glucocerebrosidase inhibition by small molecules with potential as chemical chaperones for Gaucher disease” (Bioorg Med Chem Lett, 2007).
Activity calls are given as the source filed them. The rule behind the calls is not given here.

Target: T1, Lysosomal acid glucosylceramidase (Homo sapiens, UniProt P04062)
T1 sequence (P04062 whole entry): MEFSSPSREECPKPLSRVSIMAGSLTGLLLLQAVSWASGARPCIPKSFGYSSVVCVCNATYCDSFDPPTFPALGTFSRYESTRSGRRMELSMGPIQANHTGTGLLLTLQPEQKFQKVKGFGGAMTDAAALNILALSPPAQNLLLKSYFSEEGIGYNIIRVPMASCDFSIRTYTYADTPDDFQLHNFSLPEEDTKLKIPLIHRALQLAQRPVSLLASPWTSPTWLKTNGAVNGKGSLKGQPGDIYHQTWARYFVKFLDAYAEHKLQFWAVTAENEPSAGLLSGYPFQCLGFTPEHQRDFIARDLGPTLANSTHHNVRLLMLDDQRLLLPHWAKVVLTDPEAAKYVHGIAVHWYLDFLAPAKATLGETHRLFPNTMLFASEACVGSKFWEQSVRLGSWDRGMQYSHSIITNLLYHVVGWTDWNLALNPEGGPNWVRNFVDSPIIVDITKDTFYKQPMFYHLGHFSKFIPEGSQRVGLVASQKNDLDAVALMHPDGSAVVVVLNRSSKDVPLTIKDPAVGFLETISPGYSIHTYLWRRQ
Assay: (§1) Inhibition of glucocerebrosidase

Compound	IC50 [µM]
COc1ccc(Nc2nc(NCCO)nc(N3CCCC3)n2)c(OC)c1	4.9
CCCCNc1nc(NCCO)nc(Nc2ccccc2OC)n1	6.1
CC(C)(C)Oc1ccc(Cl)cc1Nc1nc(NCCO)nc(N2CCCC2)n1	1.04
COc1ccc(Nc2nc(NCCO)nc(N3CCCC3)n2)cc1	8.8
OCCNc1nc(Nc2ccccc2O)nc(N2CCCC2)n1	2
OCCNc1nc(Nc2ccccc2)nc(N2CCCC2)n1	16.5
COc1ccccc1Nc1nc(NCCO)nc(N2CCCC2)n1	1.08
COc1cccc(Nc2nc(NCCO)nc(N3CCCC3)n2)c1	8.25
COc1ccccc1Nc1nc(NCC(C)O)nc(N2CCCC2)n1 (configuration not stated)	20.7
CC(C)(C)Oc1ccccc1Nc1nc(NCCO)nc(N2CCCC2)n1	0.33
Cc1ccc(Nc2nc(NCCO)nc(N3CCCC3)n2)cc1	10
COc1ccc(-c2ccccc2)cc1Nc1nc(NCCO)nc(N2CCCC2)n1	2.22
CCOc1ccccc1Nc1nc(NCCO)nc(N2CCCC2)n1	0.77
OCCNc1nc(Nc2ccc(Cl)cc2)nc(N2CCCC2)n1	6.34
COc1ccc(Cl)cc1Nc1nc(NCCO)nc(N2CCOCC2)n1	12.1
COc1ccccc1Nc1nc(NCCO)nc(N2CCC2)n1	2.31
COc1ccccc1Nc1nc(NCCO)nc(N2CCC(F)(F)C2)n1	7.75
Cc1ccccc1Nc1nc(NCCO)nc(N2CCCC2)n1	3.94

Compound	IC50 [µM]
OCCNc1nc(Nc2ccccc2OCc2ccccc2)nc(N2CCCC2)n1	31.4
OCCNc1nc(Nc2cccc(Cl)c2)nc(N2CCCC2)n1	6.69
CCOc1ccc(Cl)cc1Nc1nc(NCCO)nc(N2CCCC2)n1	0.96
OCCNc1nc(Nc2ccccc2Cl)nc(N2CCCC2)n1	29
COc1ccccc1Nc1nc(NCCO)nc(NCc2ccccc2)n1	18.8
COc1ccc(C(F)(F)F)cc1Nc1nc(NCCO)nc(N2CCCC2)n1	2.65
CCCCNc1nc(Nc2cc(Cl)ccc2OC)nc(N2CCCC2)n1	7.77
OCCNc1nc(Nc2ccccc2Oc2ccccc2)nc(N2CCCC2)n1	21.7
CSc1ccccc1Nc1nc(NCCO)nc(N2CCCC2)n1	2.39
COc1ccc(OC)c(Nc2nc(NCCO)nc(N3CCCC3)n2)c1	1.53
COc1ccccc1Nc1nc(NCC(O)Cc2ccccc2)nc(N2CCCC2)n1 (configuration not stated)	6.8
Cc1cccc(Nc2nc(NCCO)nc(N3CCCC3)n2)c1	6.19
COc1ccc(Cl)cc1Nc1nc(NCCO)nc(N2CCCCC2)n1	31.1
OCCNc1nc(Nc2cc(-c3ccccc3)ccc2O)nc(N2CCCC2)n1	0.37
CC(C)Oc1ccc(Cl)cc1Nc1nc(NCCO)nc(N2CCCC2)n1	3.44
OCCNc1nc(Nc2cc(Cl)ccc2O)nc(N2CCCC2)n1	0.73
OCCNc1nc(Nc2ccccc2OC(F)(F)F)nc(N2CCCC2)n1	3.34

Target: T2, Lysosomal acid glucosylceramidase (Homo sapiens) (UniProt P04062)
T2 sequence (whole entry): T1 sequence (P04062 whole entry)
Assay: as §1

Compound	Activity
CCN(CC)c1nc(NCCO)nc(Nc2cc(Cl)ccc2OC)n1	inactive
COc1ccc(Cl)cc1Nc1nc(NCCO)nc(N2CCCCCC2)n1	inactive
COc1ccccc1Nc1nc(NCCCCO)nc(N2CCCC2)n1	inactive
COC(=O)CNc1nc(Nc2ccccc2OC)nc(N2CCCC2)n1	inactive
NC(=O)c1ccccc1Nc1nc(NCCO)nc(N2CCCC2)n1	inactive
COc1ccc(Cl)cc1Nc1nc(NCc2ccco2)nc(N2CCCC2)n1	inactive
O=[N+]([O-])c1ccccc1Nc1nc(NCCO)nc(N2CCCC2)n1	inactive
COc1ccc(Cl)cc1Nc1nc(N)nc(N2CCCC2)n1	inactive
CC(=O)Nc1ccccc1Nc1nc(NCCO)nc(N2CCCC2)n1	inactive
COc1ccc(Cl)cc1Nc1nc(NCc2ccccc2)nc(N2CCCC2)n1	inactive
COc1ccc(Cl)cc1Nc1nc(N(CCO)CCO)nc(N2CCCC2)n1	inactive
COc1ccccc1Nc1nc(NCC(N)=O)nc(N2CCCC2)n1	inactive
COCCNc1nc(Nc2cc(Cl)ccc2OC)nc(N2CCCC2)n1	inactive
COc1ccccc1Nc1nc(NCCNC(C)=O)nc(N2CCCC2)n1	inactive

Target: Alpha-galactosidase (Coffea arabica) (UniProt Q5DUH8)
Sequence (Q5DUH8 as listed by the source): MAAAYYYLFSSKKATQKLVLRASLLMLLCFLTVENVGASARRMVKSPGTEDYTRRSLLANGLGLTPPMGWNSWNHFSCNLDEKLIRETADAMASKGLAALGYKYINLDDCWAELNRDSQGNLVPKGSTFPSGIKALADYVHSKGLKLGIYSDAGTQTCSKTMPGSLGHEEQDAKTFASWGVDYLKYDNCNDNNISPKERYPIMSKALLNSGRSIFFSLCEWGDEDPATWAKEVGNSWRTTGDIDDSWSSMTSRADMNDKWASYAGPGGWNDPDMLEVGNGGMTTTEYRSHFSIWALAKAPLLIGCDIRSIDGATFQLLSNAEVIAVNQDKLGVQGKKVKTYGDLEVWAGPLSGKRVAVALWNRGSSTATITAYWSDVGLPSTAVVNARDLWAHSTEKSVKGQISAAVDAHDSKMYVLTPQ
Assay: Inhibition of coffee bean alpha galactosidase upto 77 uM

Compound	Activity
CC(C)(C)Oc1ccccc1Nc1nc(NCCO)nc(N2CCCC2)n1	inactive

Tested on: Oryza sativa
Assay: Inhibition of rice alpha glucosidase upto 77 uM

Compound	Activity
CC(C)(C)Oc1ccccc1Nc1nc(NCCO)nc(N2CCCC2)n1	inactive

Target: T3, Beta-hexosaminidase subunit alpha (Bos taurus) (UniProt Q0V8R6)
T3 sequence (whole entry): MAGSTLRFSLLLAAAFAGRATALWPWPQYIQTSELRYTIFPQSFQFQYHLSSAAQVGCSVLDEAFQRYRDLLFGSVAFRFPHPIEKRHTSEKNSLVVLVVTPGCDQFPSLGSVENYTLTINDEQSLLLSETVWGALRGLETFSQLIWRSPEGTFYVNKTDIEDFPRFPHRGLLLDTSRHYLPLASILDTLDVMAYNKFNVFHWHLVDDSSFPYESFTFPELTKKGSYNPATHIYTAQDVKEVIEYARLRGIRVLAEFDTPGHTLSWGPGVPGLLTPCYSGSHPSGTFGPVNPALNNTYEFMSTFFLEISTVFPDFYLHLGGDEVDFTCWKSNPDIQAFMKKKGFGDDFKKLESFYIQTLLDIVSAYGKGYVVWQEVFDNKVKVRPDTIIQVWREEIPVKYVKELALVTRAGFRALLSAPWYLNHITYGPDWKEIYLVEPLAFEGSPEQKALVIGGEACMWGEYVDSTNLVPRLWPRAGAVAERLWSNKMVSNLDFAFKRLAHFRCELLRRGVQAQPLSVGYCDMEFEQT
Assay: Inhibition of bovine beta hexosaminidase upto 77 uM

Compound	Activity
CC(C)(C)Oc1ccccc1Nc1nc(NCCO)nc(N2CCCC2)n1	inactive
